Experimental data from PMC5639694 (Journal of medicinal chemistry, 2017).
“Also recorded” adds a separate entry of the source. One block for each molecule: values may come before it. Square brackets hold non-standard residues; d marks the D form. Peptide text beside a SMILES is read from it. Dap = NC[C@H](N)C(=O)O

Columns and labels:
mMC4R = mMC4R (Mus musculus, UniProt P56450); experiment: AlphaScreen cAMP agonist assay, HEK293 cells stably expressing mMC4R; settings: for selectivity for the mMC4R over the mMC3R: agonist potency ratio; for mMC4R agonist activity/efficacy in words: concentrations up to 100 μM, full agonist = >90% maximal NDP-MSH stimulation
Sequence of mMC4R (P56450 whole entry): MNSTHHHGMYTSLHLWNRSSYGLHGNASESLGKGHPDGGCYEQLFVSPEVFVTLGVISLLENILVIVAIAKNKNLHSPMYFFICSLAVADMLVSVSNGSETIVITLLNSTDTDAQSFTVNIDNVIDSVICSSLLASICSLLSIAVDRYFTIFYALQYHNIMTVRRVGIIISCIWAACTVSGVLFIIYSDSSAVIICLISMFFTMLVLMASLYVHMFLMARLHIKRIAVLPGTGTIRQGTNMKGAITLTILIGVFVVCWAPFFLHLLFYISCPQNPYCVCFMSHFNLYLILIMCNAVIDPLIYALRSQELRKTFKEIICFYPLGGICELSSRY

mMC5R = mMC5R (Mus musculus, UniProt P41149); experiment: AlphaScreen cAMP agonist assay, HEK293 cells stably expressing mMC5R; settings: for selectivity for the mMC5R over the mMC3R: agonist potency ratio; for mMC5R agonist activity/efficacy in words: concentrations up to 100 μM, full agonist = >90% maximal NDP-MSH stimulation
Sequence of mMC5R (P41149 whole entry): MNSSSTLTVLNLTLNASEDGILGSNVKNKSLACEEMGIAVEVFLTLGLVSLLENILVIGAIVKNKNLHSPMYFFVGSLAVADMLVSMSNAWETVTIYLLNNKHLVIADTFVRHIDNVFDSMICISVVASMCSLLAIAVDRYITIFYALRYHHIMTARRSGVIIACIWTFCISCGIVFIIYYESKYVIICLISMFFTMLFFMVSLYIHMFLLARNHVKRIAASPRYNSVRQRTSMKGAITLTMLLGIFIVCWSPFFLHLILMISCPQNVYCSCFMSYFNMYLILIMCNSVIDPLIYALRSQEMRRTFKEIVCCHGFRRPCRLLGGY

mMC1R = mMC1R (Mus musculus, UniProt Q01727); experiment: AlphaScreen cAMP agonist assay, HEK293 cells stably expressing mMC1R; settings: for selectivity for the mMC1R over the mMC3R: agonist potency ratio; for mMC1R agonist activity/efficacy in words: full agonist = >90% maximal NDP-MSH stimulation
Sequence of mMC1R (Q01727 whole entry): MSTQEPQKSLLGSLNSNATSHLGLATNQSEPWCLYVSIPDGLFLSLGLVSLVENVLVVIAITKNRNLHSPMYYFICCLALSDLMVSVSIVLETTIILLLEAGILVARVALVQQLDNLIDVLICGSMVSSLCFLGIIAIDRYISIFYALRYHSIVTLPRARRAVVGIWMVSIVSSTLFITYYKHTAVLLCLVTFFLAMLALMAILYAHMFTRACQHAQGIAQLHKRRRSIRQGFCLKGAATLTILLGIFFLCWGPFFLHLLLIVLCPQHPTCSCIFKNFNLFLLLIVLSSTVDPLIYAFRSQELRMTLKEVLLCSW

mMC3R = mMC3R (Mus musculus, UniProt P33033); experiment: AlphaScreen cAMP agonist assay, HEK293 cells stably expressing mMC3R; settings: for mMC3R agonist activity/efficacy in words: concentrations up to 100 μM, full agonist = >90% maximal NDP-MSH stimulation; for mMC3R partial agonist, percent maximal NDP stimulation: PA, relative to maximal NDP-MSH response
Sequence of mMC3R (P33033 whole entry): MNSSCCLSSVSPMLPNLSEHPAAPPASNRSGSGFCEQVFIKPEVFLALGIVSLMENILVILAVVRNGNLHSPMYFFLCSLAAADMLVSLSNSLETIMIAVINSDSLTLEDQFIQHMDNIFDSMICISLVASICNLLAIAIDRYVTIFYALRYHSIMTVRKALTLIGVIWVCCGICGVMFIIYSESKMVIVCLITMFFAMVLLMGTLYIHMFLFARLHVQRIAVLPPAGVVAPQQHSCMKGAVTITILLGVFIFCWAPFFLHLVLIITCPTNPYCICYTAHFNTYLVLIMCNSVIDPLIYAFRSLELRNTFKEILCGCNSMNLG

[1] = biological target: mouse melanocortin 1 receptor (mouse) (UniProt Q01727)
Sequence of mouse melanocortin 1 receptor (mouse) (Q01727 whole entry): as the sequence (Q01727 whole entry) above

[2] = biological target: mouse melanocortin 5 receptor (mouse) (UniProt P41149)
Sequence of mouse melanocortin 5 receptor (mouse) (P41149 whole entry): as the sequence (P41149 whole entry) above

[3] = biological target: mouse melanocortin 4 receptor (mouse) (UniProt P56450)
Sequence of mouse melanocortin 4 receptor (mouse) (P56450 whole entry): as the sequence (P56450 whole entry) above

decreased agonist potency at mMC4R relative to 5 (mMC4R; relative to 5): 590 fold | selectivity for the mMC5R over the mMC3R (mMC5R): > 100 fold | decreased agonist potency at mMC5R relative to 5 (mMC5R; relative to 5): 1,100 fold | selectivity for the mMC1R over the mMC3R (mMC1R): > 100 fold | decreased agonist potency at mMC1R relative to 5 (mMC1R; relative to 5): 420 fold | mMC3R agonist activity/efficacy in words (mMC3R): partially stimulated
Molecule: N=C(N)NCCC[C@@H]1NC(=O)[C@@H](Cc2ccccc2)NC(=O)[C@H](Cc2c[nH]cn2)NC(=O)[C@@H]2CCCN2C(=O)[C@H]2CCCN2C(=O)[C@H](CN)NC(=O)[C@H](Cc2c[nH]c3ccccc23)NC1=O [Peptide 6, c[Pro-His-DPhe-Arg-Trp-Dap-DPro]] (cyclo(PH[dF]RW[Dap][dP]))

agonist EC50 (cAMP AlphaScreen, HEK293 cells stably expressing the receptor) [1]: 460 nM | agonist EC50 (cAMP AlphaScreen, HEK293 cells stably expressing the receptor) [2]: 330 nM | agonist EC50 (cAMP AlphaScreen, HEK293 cells stably expressing the receptor) [3]: 950 nM
Molecule: cyclo(PH[dF]RW[Dap][dP])

mMC5R agonist activity/efficacy in words (mMC5R): partially stimulated
Molecule: N=C(N)NCCC[C@@H]1NC(=O)[C@@H](Cc2ccccc2)NC(=O)[C@@H]2CCCN2C(=O)[C@H]2CCCN2C(=O)[C@H](CC(N)=O)NC(=O)[C@H](Cc2c[nH]c3ccccc23)NC1=O [Peptide 10, c[Pro-DPhe-Arg-Trp-Asn-DPro]] (cyclo(P[dF]RWN[dP]))
mMC3R agonist activity/efficacy in words (mMC3R): no agonist activity; also recorded: did not possess agonist activity

selectivity for the mMC4R over the mMC3R (mMC4R): > 300 fold | decreased agonist potency at mMC4R relative to 1 (mMC4R): 90 fold | selectivity for the mMC5R over the mMC3R (mMC5R): > 1000 fold | decreased agonist potency at mMC5R relative to 1 (mMC5R): 90 fold | selectivity for the mMC1R over the mMC3R (mMC1R): > 100 fold | mMC1R agonist activity/efficacy in words (mMC1R): full mMC1R agonists | decreased agonist potency at mMC1R relative to 1 (mMC1R): 1140 fold | mMC3R agonist activity/efficacy in words (mMC3R): partially stimulated
Molecule: C[C@@H]1NC(=O)[C@H](CC(N)=O)NC(=O)[C@H](Cc2c[nH]c3ccccc23)NC(=O)[C@H](CCCNC(=N)N)NC(=O)[C@@H](Cc2ccccc2)NC(=O)[C@@H]2CCCN2C(=O)[C@H]2CCCN2C(=O)[C@H](Cc2ccccc2)NC1=O [Peptide 8, c[Pro-DPhe-Arg-Trp-Asn-Ala-Phe-DPro]] (cyclo(P[dF]RWNAF[dP]))

selectivity for the mMC4R over the mMC3R (mMC4R): > 300 fold | selectivity for the mMC5R over the mMC3R (mMC5R): > 1000 fold | mMC3R agonist activity/efficacy in words (mMC3R): partially stimulated
Molecule: C[C@@H]1NC(=O)[C@H](CN)NC(=O)[C@H](Cc2c[nH]c3ccccc23)NC(=O)[C@H](CCCNC(=N)N)NC(=O)[C@@H](Cc2ccccc2)NC(=O)[C@@H]2CCCN2C(=O)[C@H]2CCCN2C1=O [Peptide 12, c[Pro-DPhe-Arg-Trp-Dap-Ala-DPro]] (cyclo(P[dF]RW[Dap]A[dP]))
mMC1R agonist activity/efficacy in words (mMC1R): full agonist efficacy; also recorded: full mMC1R agonists

mMC4R agonist activity/efficacy in words (mMC4R): partially stimulated
Molecule: N=C(N)NCCC[C@@H]1NC(=O)[C@@H](Cc2ccccc2)NC(=O)[C@@H]2CCCN2C(=O)[C@H]2CCCN2C(=O)[C@H](CN)NC(=O)[C@H](Cc2c[nH]c3ccccc23)NC1=O [Peptide 13, c[Pro-DPhe-Arg-Trp-Dap-DPro]] (cyclo(P[dF]RW[Dap][dP]))
mMC5R agonist activity/efficacy in words (mMC5R): no observable activity; also recorded: unable to stimulate; also recorded: no agonist activity | mMC3R agonist activity/efficacy in words (mMC3R): no observable activity; also recorded: did not possess agonist activity; also recorded: no agonist activity

agonist EC50 (cAMP AlphaScreen, HEK293 cells stably expressing the receptor) [1]: 1.1 nM | agonist EC50 (cAMP AlphaScreen, HEK293 cells stably expressing the receptor) [3]: 1.6 nM
Molecule: cyclo(PH[dF]RW[Dap]A[dP])

decreased agonist potency at mMC4R relative to 1 (mMC4R): 21 fold | decreased agonist potency at mMC5R relative to 1 (mMC5R): 5 fold | decreased agonist potency at mMC1R relative to 1 (mMC1R): 34 fold | mMC3R partial agonist, percent maximal NDP stimulation (mMC3R): 85%
Molecule: C[C@@H]1NC(=O)[C@H](CC(N)=O)NC(=O)[C@H](Cc2c[nH]c3ccccc23)NC(=O)[C@H](CCCNC(=N)N)NC(=O)[C@@H](Cc2ccccc2)NC(=O)[C@H](Cc2c[nH]cn2)NC(=O)[C@@H]2CCCN2C(=O)[C@H]2CCCN2C1=O [Peptide 2, c[Pro-His-DPhe-Arg-Trp-Asn-Ala-DPro]] (cyclo(PH[dF]RWNA[dP]))

agonist EC50 (cAMP AlphaScreen, HEK293 cells stably expressing the receptor) [2]: 46 nM
Molecule: cyclo(P[dF]RW[Dap]AF[dP])

agonist EC50 (cAMP AlphaScreen, HEK293 cells stably expressing the receptor) [2]: 48 nM | agonist EC50 (cAMP AlphaScreen, HEK293 cells stably expressing the receptor) [3]: 150 nM
Molecule: cyclo(P[dF]RW[Dap]A[dP])

selectivity for the mMC5R over the mMC3R (mMC5R): > 100 fold
Molecule: C[C@@H]1NC(=O)[C@H](CN)NC(=O)[C@H](Cc2c[nH]c3ccccc23)NC(=O)[C@H](CCCNC(=N)N)NC(=O)[C@@H](Cc2ccccc2)NC(=O)[C@H](Cc2c[nH]cn2)NC(=O)[C@@H]2CCCN2C(=O)[C@H]2CCCN2C1=O [Peptide 5, c[Pro-His-DPhe-Arg-Trp-Dap-Ala-DPro]] (cyclo(H[dF]RW[Dap]A[dP]P))
mMC4R agonist activity/efficacy in words (mMC4R): fully stimulate; also recorded: full agonists

mMC3R agonist activity/efficacy in words (mMC3R): partially stimulated
Molecule: N=C(N)NCCC[C@@H]1NC(=O)[C@@H](Cc2ccccc2)NC(=O)[C@H](Cc2c[nH]cn2)NC(=O)[C@@H]2CCCN2C(=O)[C@H]2CCCN2C(=O)[C@H](Cc2c[nH]c3ccccc23)NC1=O [Peptide 7, c[Pro-His-DPhe-Arg-Trp-DPro]] (cyclo(PH[dF]RW[dP]))

decreased agonist potency at mMC4R relative to 1 (mMC4R): 120 fold | decreased agonist potency at mMC5R relative to 1 (mMC5R): 37 fold | decreased agonist potency at mMC1R relative to 1 (mMC1R): 140 fold | mMC3R partial agonist, percent maximal NDP stimulation (mMC3R): 65%
Molecule: N=C(N)NCCC[C@@H]1NC(=O)[C@@H](Cc2ccccc2)NC(=O)[C@H](Cc2c[nH]cn2)NC(=O)[C@@H]2CCCN2C(=O)[C@H]2CCCN2C(=O)[C@H](CC(N)=O)NC(=O)[C@H](Cc2c[nH]c3ccccc23)NC1=O [Peptide 3, c[Pro-His-DPhe-Arg-Trp-Asn-DPro]] (cyclo(PH[dF]RWN[dP]))

selectivity for the mMC5R over the mMC3R (mMC5R): > 1000 fold | selectivity for the mMC1R over the mMC3R (mMC1R): > 100 fold | mMC1R agonist activity/efficacy in words (mMC1R): full mMC1R agonists | mMC3R agonist activity/efficacy in words (mMC3R): partially stimulated
Molecule: C[C@@H]1NC(=O)[C@H](CC(N)=O)NC(=O)[C@H](Cc2c[nH]c3ccccc23)NC(=O)[C@H](CCCNC(=N)N)NC(=O)[C@@H](Cc2ccccc2)NC(=O)[C@@H]2CCCN2C(=O)[C@H]2CCCN2C1=O [Peptide 9, c[Pro-DPhe-Arg-Trp-Asn-Ala-DPro]] (cyclo(P[dF]RWNA[dP]))

mMC4R agonist activity/efficacy in words (mMC4R): full agonists
Molecule: C[C@@H]1NC(=O)[C@H](CC(N)=O)NC(=O)[C@H](Cc2c[nH]c3ccccc23)NC(=O)[C@H](CCCNC(=N)N)NC(=O)[C@@H](Cc2ccccc2)NC(=O)[C@H](Cc2c[nH]cn2)NC(=O)[C@@H]2CCCN2C(=O)[C@H]2CCCN2C(=O)[C@H](Cc2ccccc2)NC1=O [Peptide 1, c[Pro-His-DPhe-Arg-Trp-Asn-Ala-Phe-DPro]] (cyclo(H[dF]RWNAF[dP]P))

mMC4R partial agonist, percent maximal NDP stimulation (mMC4R; PA, relative to maximal NDP-MSH response): 70% | mMC4R agonist activity/efficacy in words (mMC4R): partial agonist | mMC1R agonist activity/efficacy in words (mMC1R): full agonist | decreased agonist potency at mMC1R relative to 1 (mMC1R): 70 fold | mMC3R agonist activity/efficacy in words (mMC3R): full agonist
Molecule: C[C@@H]1NC(=O)[C@H](CN)NC(=O)[C@H](Cc2c[nH]c3ccccc23)NC(=O)[C@H](CCCNC(=N)N)NC(=O)[C@@H](Cc2ccccc2)NC(=O)[C@H](Cc2c[nH]cn2)NC(=O)[C@@H]2CCCN2C(=O)[C@H]2CCCN2C(=O)[C@H](Cc2ccccc2)NC1=O [Peptide 4, c[Pro-His-DPhe-Arg-Trp-Dap-Ala-Phe-DPro]] (cyclo(PH[dF]RW[Dap]AF[dP]))

mMC4R agonist activity/efficacy in words (mMC4R): full agonist efficacy | mMC5R agonist activity/efficacy in words (mMC5R): full agonist efficacy | mMC1R agonist activity/efficacy in words (mMC1R): partial agonist | mMC3R agonist activity/efficacy in words (mMC3R): partial agonist
Molecule: C[C@@H]1NC(=O)[C@H](CN)NC(=O)[C@H](Cc2c[nH]c3ccccc23)NC(=O)[C@H](CCCNC(=N)N)NC(=O)[C@@H](Cc2ccccc2)NC(=O)[C@@H]2CCCN2C(=O)[C@H]2CCCN2C(=O)[C@H](Cc2ccccc2)NC1=O [Peptide 11, c[Pro-DPhe-Arg-Trp-Dap-Ala-Phe-DPro]] (cyclo(P[dF]RW[Dap]AF[dP]))

agonist EC50 (cAMP AlphaScreen, HEK293 cells stably expressing the receptor) [1]: 1800 nM
B1: c[Pro-DPhe-Arg-Trp-DPro] (peptide)
peptide: cyclo(P[dF]RW[dP])
SMILES: N=C(N)NCCC[C@@H]1NC(=O)[C@@H](Cc2ccccc2)NC(=O)[C@@H]2CCCN2C(=O)[C@H]2CCCN2C(=O)[C@H](Cc2c[nH]c3ccccc23)NC1=O

agonist EC50 (cAMP AlphaScreen, HEK293 cells stably expressing the receptor) [3]: 420 nM
B2: c[Pro-DPhe-Arg-Trp-Asn-Ala-DPro] (peptide)
peptide: cyclo(P[dF]RWNA[dP])
SMILES: C[C@@H]1NC(=O)[C@H](CC(N)=O)NC(=O)[C@H](Cc2c[nH]c3ccccc23)NC(=O)[C@H](CCCNC(=N)N)NC(=O)[C@@H](Cc2ccccc2)NC(=O)[C@@H]2CCCN2C(=O)[C@H]2CCCN2C1=O

agonist EC50 (cAMP AlphaScreen, HEK293 cells stably expressing the receptor) [2]: 16.8 nM | agonist EC50 (cAMP AlphaScreen, HEK293 cells stably expressing the receptor) [3]: 170 nM
Molecule: cyclo(PH[dF]RWN[dP]) [c[Pro-His-DPhe-Arg-Trp-Asn-DPro]]

agonist EC50 (cAMP AlphaScreen, HEK293 cells stably expressing the receptor) [3]: 130 nM
B3: c[Pro-DPhe-Arg-Trp-Asn-Ala-Phe-DPro] (peptide)
peptide: cyclo(P[dF]RWNAF[dP])
SMILES: C[C@@H]1NC(=O)[C@H](CC(N)=O)NC(=O)[C@H](Cc2c[nH]c3ccccc23)NC(=O)[C@H](CCCNC(=N)N)NC(=O)[C@@H](Cc2ccccc2)NC(=O)[C@@H]2CCCN2C(=O)[C@H]2CCCN2C(=O)[C@H](Cc2ccccc2)NC1=O
